{"source": "paper PMC10509167", "about": "“Identification and characterization of endo-α-, exo-α-, and exo-β-D-arabinofuranosidases degrading lipoarabinomannan and arabinogalactan of mycobacteria” (Nature Communications, 2023)", "target": "T1, EndoMA1 (MIAR_33230) (Microbacterium arabinogalactanolyticum, UniProt A0AAJ6N6D4)", "T1 construct": "53,678 Da monomer, dimer; catalytic domain plus putative CBM", "T1 sequence (A0AAJ6N6D4 entry or part of it)": "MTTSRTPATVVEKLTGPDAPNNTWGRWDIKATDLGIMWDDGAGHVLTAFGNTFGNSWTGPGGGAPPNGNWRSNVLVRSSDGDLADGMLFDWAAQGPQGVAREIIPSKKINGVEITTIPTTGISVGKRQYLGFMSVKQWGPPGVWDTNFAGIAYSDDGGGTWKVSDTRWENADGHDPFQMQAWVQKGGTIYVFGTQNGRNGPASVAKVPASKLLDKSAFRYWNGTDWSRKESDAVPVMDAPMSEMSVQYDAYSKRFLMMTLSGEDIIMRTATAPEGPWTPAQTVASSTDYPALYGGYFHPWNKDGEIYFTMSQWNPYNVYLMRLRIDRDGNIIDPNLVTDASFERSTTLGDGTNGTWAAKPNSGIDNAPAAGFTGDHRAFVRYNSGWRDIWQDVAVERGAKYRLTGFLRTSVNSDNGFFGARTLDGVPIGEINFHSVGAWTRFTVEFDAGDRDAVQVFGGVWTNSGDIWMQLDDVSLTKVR", "experiment": "X-ray crystallography ([…] Å)", "assay_type": "binding", "conditions": "co-crystallized with A9LT; second site, putative CBM domain; possible crystal packing artifact"}
{"smiles": "OC[C@H]1O[C@H](OC[C@H]2O[C@H](OC[C@H]3O[C@H](OC[C@H]4OC(O)[C@@H](O)[C@@H]4O)[C@@H](O)[C@@H]3O)[C@@H](O)[C@@H]2O)[C@@H](O)[C@@H]1O", "note": "(stereo partly shown) [A4L]", "values": [{"measurement": "X-ray crystallography (1.80 Å)", "result": "The A4L molecule is bound to the shallow surface of the putative CBM domain"}]}
